ID50 and IC50 data for three compounds are collected here from ChEMBL document CHEMBL1157303, “Bioactive triterpenoids from Salvia species” (J Nat Prod, 2006).

pIC50: −log10 of the molar value.

The test system of one assay is Mus musculus. Briefly: Antiinflammatory activity against croton oil-induced ear edema in mouse. In kind it is functional.
Assay [1] in a line: Inhibition of rat DNA polymerase in absence of bovine serum albumin.
A short description of assay [2]: Inhibition of rat DNA polymerase in presence of bovine serum albumin.

With `COc1ccc2c(c1)c(CC(=O)O)c(C)n2C(=O)c1ccc(Cl)cc1` [INDOMETHACIN], in the assay on Mus musculus, the ID50 stood at 0.26 µmol.

Usually pIC50 stands for the IC50 on a negative log10 scale, so that one unit is a factor of ten. With `CC1(C)CC[C@]2(C(=O)O)CC[C@]3(C)C(=CC[C@@H]4[C@@]5(C)CC[C@H](O)C(C)(C)[C@@H]5CC[C@]43C)[C@@H]2C1` [OLEANOLIC_ACID], the figures for the pIC50 in assay [1] and in assay [2] were 5.43 and 5.12, respectively.

`C[C@H]1[C@H](C)CC[C@]2(C(=O)O)CC[C@]3(C)C(=CC[C@@H]4[C@@]5(C)CC[C@H](O)C(C)(C)[C@@H]5CC[C@]43C)[C@H]12` [URSOLIC ACID]: the ID50 in the assay with Mus musculus is 0.14 µmol. Moreover, the pIC50 in assay [1] was 5.32; in assay [2], 5.07.
